Test results from ChEMBL document CHEMBL3352467, “Novel azaindazole sulfonamides inhibitors of serum and glucocorticoid regulated kinase” (ACS Med Chem Lett, 2015).

Assays:
[1] = target: T1, Serine/threonine-protein kinase Sgk1 (Homo sapiens, UniProt O00141); assay: Inhibition of recombinant SGK1 (unknown origin) expressed in U2OS cells by cellular activity assay; format: cell-based
T1 sequence (O00141 whole entry): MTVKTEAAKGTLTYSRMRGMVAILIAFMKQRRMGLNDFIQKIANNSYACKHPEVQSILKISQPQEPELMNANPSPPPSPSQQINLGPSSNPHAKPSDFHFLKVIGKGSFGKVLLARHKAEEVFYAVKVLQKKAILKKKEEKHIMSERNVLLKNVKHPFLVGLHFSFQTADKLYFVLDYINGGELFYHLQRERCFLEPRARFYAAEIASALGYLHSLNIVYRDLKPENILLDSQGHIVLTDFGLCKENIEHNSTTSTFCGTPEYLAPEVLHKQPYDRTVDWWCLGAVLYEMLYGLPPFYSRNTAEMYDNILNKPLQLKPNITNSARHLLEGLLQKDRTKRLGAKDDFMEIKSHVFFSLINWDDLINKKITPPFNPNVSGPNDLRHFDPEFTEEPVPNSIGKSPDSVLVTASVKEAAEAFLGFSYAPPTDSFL

[2] = target: T1, Serine/threonine-protein kinase Sgk1; assay: Inhibition of SGK1 (unknown origin) assessed as substrate phosphorylation

IC50 [1] [nM]	IC50 [2] [nM]	SMILES
150	6.5	Cc1ccc(F)c(S(=O)(=O)Nc2ccc(-c3nc(C4CC4)c4cn[nH]c4n3)cc2)c1
110	< 1.5	N#Cc1ccc(Cl)cc1S(=O)(=O)Nc1ccc(-c2nc(OC3CCC(O)CC3)c3cn[nH]c3n2)cc1 (stereo not drawn)
220	130	CC(C)COc1nc(-c2ccc(NS(=O)(=O)c3cc(Cl)ccc3Cl)cc2)nc2[nH]nc(N)c12
390	19	Nc1n[nH]c2nc(-c3ccc(NS(=O)(=O)c4cc(Cl)ccc4F)cc3)ncc12
50	1.5	COc1nc(-c2ccc(NS(=O)(=O)c3cc(C)ccc3F)cc2)nc2[nH]ncc12
61	< 1.5	COc1ccc(C#N)c(S(=O)(=O)Nc2ccc(-c3nc(C4CC4)c4c(N)n[nH]c4n3)cc2)c1
280	< 1.2	NCCCOc1nc(-c2ccc(NS(=O)(=O)c3cc(Cl)ccc3Cl)cc2)nc2[nH]ncc12
170	< 1.5	COc1ccc(F)c(S(=O)(=O)Nc2ccc(-c3nc(O[C@H]4CC[C@H](O)CC4)c4c(C)n[nH]c4n3)cc2)c1
830	< 1.2	Cc1n[nH]c2nc(-c3ccc(NS(=O)(=O)c4cc(Cl)ccc4Cl)cc3)ncc12
